Reference: PubChem BioAssay (NCI)
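The compound was tested at five concentrations on cells cultured in 96-well plates, with a 48-hour exposure period. The concentration for 50% growth inhibition is given as GI50. TGI denotes the concentration required for complete inhibition of growth.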

What was measured:
Assay in all cases: growth of human tumour cells (NCI), 48 h
NCI-H23 lung = tested on: NCI-H23 lung
SK-OV-3 ovarian = tested on: SK-OV-3 ovarian
SF-268 CNS = tested on: SF-268 CNS
NCI-H522 lung = tested on: NCI-H522 lung
MALME-3M melanoma = tested on: MALME-3M melanoma
M14 melanoma = tested on: M14 melanoma
PC-3 prostate = tested on: PC-3 prostate
NCI-H226 lung = tested on: NCI-H226 lung
CCRF-CEM leukemia = tested on: CCRF-CEM leukemia
SF-539 CNS = tested on: SF-539 CNS
SK-MEL-2 melanoma = tested on: SK-MEL-2 melanoma
HL-60(TB) leukemia = tested on: HL-60(TB) leukemia
OVCAR-8 ovarian = tested on: OVCAR-8 ovarian
BT-549 breast = tested on: BT-549 breast
SK-MEL-28 melanoma = tested on: SK-MEL-28 melanoma
A549 NSCLC = tested on: A549 NSCLC
RPMI-8226 leukemia = tested on: RPMI-8226 leukemia
U251 CNS = tested on: U251 CNS
MOLT-4 leukemia = tested on: MOLT-4 leukemia
HCT-116 colon = tested on: HCT-116 colon
IGROV1 ovarian = tested on: IGROV1 ovarian
UO-31 renal = tested on: UO-31 renal
LOX IMVI melanoma = tested on: LOX IMVI melanoma
MDA-MB-231 breast = tested on: MDA-MB-231 breast
A498 renal = tested on: A498 renal
KM12 colon = tested on: KM12 colon
T-47D breast = tested on: T-47D breast
CAKI-1 renal = tested on: CAKI-1 renal
786-0 renal = tested on: 786-0 renal
COLO 205 colon = tested on: COLO 205 colon
SK-MEL-5 melanoma = tested on: SK-MEL-5 melanoma
MCF7 breast = tested on: MCF7 breast
UACC-257 melanoma = tested on: UACC-257 melanoma
MDA-MB-435 = tested on: MDA-MB-435
OVCAR-3 ovarian = tested on: OVCAR-3 ovarian
HT29 colon = tested on: HT29 colon
UACC-62 melanoma = tested on: UACC-62 melanoma
HCT-15 colon = tested on: HCT-15 colon
TK-10 renal = tested on: TK-10 renal
SNB-19 CNS = tested on: SNB-19 CNS
HS 578T breast = tested on: HS 578T breast
SW-620 colon = tested on: SW-620 colon
OVCAR-4 ovarian = tested on: OVCAR-4 ovarian
EKVX NSCLC = tested on: EKVX NSCLC
K-562 leukemia = tested on: K-562 leukemia
HOP-92 NSCLC = tested on: HOP-92 NSCLC
SNB-75 CNS = tested on: SNB-75 CNS
HOP-62 NSCLC = tested on: HOP-62 NSCLC
SF-295 CNS = tested on: SF-295 CNS
ACHN renal = tested on: ACHN renal
OVCAR-5 ovarian = tested on: OVCAR-5 ovarian
NCI-H460 lung = tested on: NCI-H460 lung
HCC-2998 colon = tested on: HCC-2998 colon
NCI/ADR-RES ovarian = tested on: NCI/ADR-RES ovarian
DU-145 prostate = tested on: DU-145 prostate
RXF 393 renal = tested on: RXF 393 renal
SN12C renal = tested on: SN12C renal

CCC(=O)Sc1ccccc1C(=O)Nc1ccc(Cl)cc1
GI50 (NCI-H23 lung): 6.43 µM | TGI (NCI-H23 lung): 39.2 µM | GI50 (SK-OV-3 ovarian): 18.7 µM | TGI (SK-OV-3 ovarian): 53.9 µM | GI50 (SF-268 CNS): 9.67 µM | TGI (SF-268 CNS): 52.9 µM | GI50 (NCI-H522 lung): 6.21 µM | TGI (NCI-H522 lung): 27.1 µM | GI50 (MALME-3M melanoma): 8.76 µM | TGI (MALME-3M melanoma): 51.2 µM | GI50 (M14 melanoma): 6.42 µM | TGI (M14 melanoma): 43.9 µM | GI50 (PC-3 prostate): 10.8 µM | TGI (PC-3 prostate): 56.3 µM | GI50 (NCI-H226 lung): 10.4 µM | TGI (NCI-H226 lung): 54.8 µM | GI50 (CCRF-CEM leukemia): 4.22 µM | TGI (CCRF-CEM leukemia): > 100 µM | GI50 (SF-539 CNS): 11.2 µM | TGI (SF-539 CNS): 30.5 µM | GI50 (SK-MEL-2 melanoma): 25.7 µM | TGI (SK-MEL-2 melanoma): > 100 µM | GI50 (HL-60(TB) leukemia): 3.65 µM | TGI (HL-60(TB) leukemia): 19.8 µM | GI50 (OVCAR-8 ovarian): 17.4 µM | TGI (OVCAR-8 ovarian): > 100 µM | GI50 (BT-549 breast): 3.21 µM | TGI (BT-549 breast): 9.89 µM | GI50 (SK-MEL-28 melanoma): 9.33 µM | TGI (SK-MEL-28 melanoma): 57.7 µM | GI50 (A549 NSCLC): 11.7 µM | TGI (A549 NSCLC): > 100 µM | GI50 (RPMI-8226 leukemia): 4.32 µM | TGI (RPMI-8226 leukemia): 29.3 µM | GI50 (U251 CNS): 5.73 µM | TGI (U251 CNS): 32.3 µM | GI50 (MOLT-4 leukemia): 4.67 µM | TGI (MOLT-4 leukemia): 92.6 µM | GI50 (HCT-116 colon): 3.58 µM | TGI (HCT-116 colon): 13.1 µM | GI50 (IGROV1 ovarian): 13.7 µM | TGI (IGROV1 ovarian): > 100 µM | GI50 (UO-31 renal): 6.53 µM | TGI (UO-31 renal): > 100 µM | GI50 (LOX IMVI melanoma): 5.91 µM | TGI (LOX IMVI melanoma): 24.4 µM | GI50 (MDA-MB-231 breast): 11.2 µM | TGI (MDA-MB-231 breast): 45.7 µM | GI50 (A498 renal): 9.19 µM | TGI (A498 renal): 38.5 µM | GI50 (KM12 colon): 6.69 µM | TGI (KM12 colon): 36.8 µM | GI50 (T-47D breast): 8.96 µM | TGI (T-47D breast): 38.6 µM | GI50 (CAKI-1 renal): 10.2 µM | TGI (CAKI-1 renal): 38.4 µM | GI50 (786-0 renal): 15 µM | TGI (786-0 renal): 41.8 µM | GI50 (COLO 205 colon): 13.6 µM | TGI (COLO 205 colon): 32.1 µM | GI50 (SK-MEL-5 melanoma): 4.22 µM | TGI (SK-MEL-5 melanoma): 17.4 µM | GI50 (MCF7 breast): 3.86 µM | TGI (MCF7 breast): 36.2 µM | GI50 (UACC-257 melanoma): 31.7 µM | TGI (UACC-257 melanoma): > 100 µM | GI50 (MDA-MB-435): 6.92 µM | TGI (MDA-MB-435): 39.9 µM | GI50 (OVCAR-3 ovarian): 6.34 µM | TGI (OVCAR-3 ovarian): 26.1 µM | GI50 (HT29 colon): 7.09 µM | TGI (HT29 colon): 44.5 µM | GI50 (UACC-62 melanoma): 4.38 µM | TGI (UACC-62 melanoma): 24.3 µM | GI50 (HCT-15 colon): 7.79 µM | TGI (HCT-15 colon): > 100 µM | GI50 (TK-10 renal): 22.9 µM | TGI (TK-10 renal): 76.9 µM | GI50 (SNB-19 CNS): 16.6 µM | TGI (SNB-19 CNS): 68.8 µM | GI50 (HS 578T breast): 15.9 µM | TGI (HS 578T breast): 66.4 µM | GI50 (SW-620 colon): 3.63 µM | TGI (SW-620 colon): 25.8 µM | GI50 (OVCAR-4 ovarian): 13.1 µM | TGI (OVCAR-4 ovarian): > 100 µM | GI50 (EKVX NSCLC): 7.16 µM | TGI (EKVX NSCLC): 75.2 µM | GI50 (K-562 leukemia): 3.83 µM | TGI (K-562 leukemia): > 100 µM | GI50 (HOP-92 NSCLC): 2.52 µM | TGI (HOP-92 NSCLC): 9.67 µM | GI50 (SNB-75 CNS): 19.2 µM | TGI (SNB-75 CNS): 98.2 µM | GI50 (HOP-62 NSCLC): 12.5 µM | TGI (HOP-62 NSCLC): 34.2 µM | GI50 (SF-295 CNS): 5.08 µM | TGI (SF-295 CNS): 25.4 µM | GI50 (ACHN renal): 16.5 µM | TGI (ACHN renal): 71.6 µM | GI50 (OVCAR-5 ovarian): 15.9 µM | TGI (OVCAR-5 ovarian): 33.2 µM | GI50 (NCI-H460 lung): 4.84 µM | TGI (NCI-H460 lung): 36 µM | GI50 (HCC-2998 colon): 18.5 µM | TGI (HCC-2998 colon): 47 µM | GI50 (NCI/ADR-RES ovarian): 6.45 µM | TGI (NCI/ADR-RES ovarian): 38 µM | GI50 (DU-145 prostate): 22.1 µM | TGI (DU-145 prostate): 74.3 µM | GI50 (RXF 393 renal): 28.7 µM | TGI (RXF 393 renal): > 100 µM | GI50 (SN12C renal): 4.26 µM | TGI (SN12C renal): 41.8 µM
